The results in this text go back to US20070265261A1, “Dpp-IV Inhibitors” (priority 2004, published 2007).

Usually IC50 stands for the concentration at which inhibition is half-maximal.

The target of this assay is T1, DPP-IV (Homo sapiens, UniProt P27487).
T1 construct: Soluble human DPP-IV lacking the transmembrane anchor (Gly31-Pro766); Pre-Pro-alpha-mating factor leader (secretion signal) (N, cleaved yes); made in house
T1 sequence (P27487 31-766): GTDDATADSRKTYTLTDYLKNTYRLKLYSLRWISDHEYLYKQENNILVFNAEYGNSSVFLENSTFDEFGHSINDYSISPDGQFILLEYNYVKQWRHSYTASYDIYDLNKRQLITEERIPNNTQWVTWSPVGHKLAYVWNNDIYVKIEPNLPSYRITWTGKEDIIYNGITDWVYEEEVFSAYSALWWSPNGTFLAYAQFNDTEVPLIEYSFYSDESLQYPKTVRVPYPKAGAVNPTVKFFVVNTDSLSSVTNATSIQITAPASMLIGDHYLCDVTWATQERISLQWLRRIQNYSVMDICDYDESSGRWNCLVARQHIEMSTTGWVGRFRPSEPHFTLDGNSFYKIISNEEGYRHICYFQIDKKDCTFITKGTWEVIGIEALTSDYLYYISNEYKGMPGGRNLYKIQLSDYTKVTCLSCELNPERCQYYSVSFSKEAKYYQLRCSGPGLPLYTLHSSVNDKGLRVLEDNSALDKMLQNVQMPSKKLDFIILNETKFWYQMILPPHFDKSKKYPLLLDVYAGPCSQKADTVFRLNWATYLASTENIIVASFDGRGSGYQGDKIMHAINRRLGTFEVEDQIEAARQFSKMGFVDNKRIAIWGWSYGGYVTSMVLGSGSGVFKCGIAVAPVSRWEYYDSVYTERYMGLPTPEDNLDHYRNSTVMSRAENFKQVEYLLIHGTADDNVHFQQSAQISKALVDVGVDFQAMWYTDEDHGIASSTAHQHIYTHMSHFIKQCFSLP
In words: Inhibition of DPP-IV peptidase activity, continuous fluorimetric assay (cleavage of Gly-Pro-AMC). Also: 16 µM Gly-Pro-AMC. Type of assay: biochemical. As for the experimental part: Inhibition of DPP-IV peptidase activity was monitored with a continuous fluorimetric assay. This assay is based on the cleavage of the substrate Gly-Pro-AMC (Bachem) by DPP-IV, releasing free AMC. The assay is carried out in 96-well microtiter plates. In a total volume of 100 μL, compounds are preincubated with […] DPP-IV employing a buffer containing 10 mM Hepes, 150 mM NaCl, 0.005% Tween 20 (pH 7.4). […] The final concentration of DMSO is 1%. The inhibitory potential of the compounds were determined.
Soluble human DPP-IV lacking the transmembrane anchor (Gly31-Pro766) was expressed in a recombinant YEAST-strain as Pre-Pro-alpha-mating fusion. The secreted product (rhuDPP-IV-Gly31-Pro766) was purified from fermentation broth (>90% purity).
Regarding `CS(=O)(=O)Nc1cccc(C(=O)N2CCC(C(N)Cc3cccc(Cl)c3)CC2)c1` (centres unmarked) [Example 72, N-(3-{4-[1-Amino-2-(3-chloro-phenyl)-ethyl]-piperidine-1-carbonyl}-phenyl)-methane-sulphonamide], the concentration for half-maximal inhibition (IC50) was < 100 nM.

On to `NC(Cc1cccc(Cl)c1)C1CCN(c2ncccn2)CC1` (centres unmarked) [Example 73], for which the 50% inhibitory concentration (IC50) lay within 101 to 1000 nM.

Consider `NC(Cc1cc(F)ccc1F)C1CCN(C(=O)N2CCC(F)(F)C2)CC1` (centres unmarked) [Example 74, {4-[1-Amino-2-(2 5-difluoro-phenyl)-ethyl]-piperidin-1-yl}-(3,3-difluoro-pyrrolidin-1-yl)-methanone], for which the IC50 was < 100 nM.

Regarding `NC(Cc1cccc(Cl)c1)C1CCN(C(=O)N2CCOCC2)CC1` (centres unmarked) [Example 75], the 50% inhibitory concentration (IC50) was < 100 nM.

With `NC(Cc1cccc(Cl)c1)C1CCN(C(=O)N2CCCC2)CC1` (centres unmarked) [Example 76], the half-inhibitory concentration (IC50) is < 100 nM.
